Measurements as given in patent US8865934B2 (priority 2010, dated 2014).
In brackets after ≈: the same amount, converted by molar mass.

Legend:
[1] = Stability of ramalin in water by HPLC, alone or with vitamin C; type: physicochemical; conditions: for stability (preserved amount by HPLC area) over maintenance time: FIG. 5
Description: At varying points of time, 10 μl of a sample was analyzed by semi-preparative reverse phase HPLC using an Agilent Eclipse XDB-C18 column (4.6×150 mm). The solvent system used consisted of 0.1% formic acid-containing water (A line) and 0.1% formic acid-containing methanol (B line). The analysis was carried out for a total of 30 minutes under the following conditions: from 0% to 5% for 15 min, from 5% to 90% for 5 min, from 90% to 0% for 5 min, and finally, from 0% to 5 min. The flow rate was 0.7 ml/min.

[2] = DPPH free radical scavenging (antioxidant activity, electron donating ability); conditions: 0.1 mM DPPH in methanol, 30 minutes at room temperature in the absence of light, absorbance at 517 nm
Description: Butylated hydroxyl anisole (BHA) was used as a control.
The mixture was allowed to react at room temperature for 30 minutes in the absence of light, and then the absorbance at 517 nm was measured using an UV-visible spectrophotometer (SCINCO, Korea). As blank, a reaction product between 0.5 ml of 0.1 mM DPPH and 1.5 ml of methanol was used. Electron donating ability (DEA) was calculated using the following equation: Electron donating ability (DEA) %={1−(S/B)}×100 wherein S is the absorbance at 517 nm of the reaction product between DPPH and the sample, and B is the absorbance at 517 nm of the reaction product between DPPH and methanol.

Structure (SMILES)	stability (preserved amount by HPLC area) over maintenance time ([1]; ramalin alone, stored in water at 25° C. and 38° C.)	stability (preserved amount by HPLC area) over maintenance time ([1]; ramalin mixed with vitamin C (L-ascorbic acid) 1:1 (each 1000 ppm), stored in water)	stability at 38° C. ([1]; ramalin stored alone in water)	stability at 38° C. ([1]; ramalin stored together with vitamin C (1:1, each 1000 ppm) in water)	time within which more than half of ramalin disappears ([1]; room temperature, ramalin alone)	IC50 values [2]
NC(CCC(=O)NNc1ccccc1O)C(=O)O (stereo not drawn) [Synthesized ramalin, ramalin]	decomposed rapidly	stability of the ramalin was maintained	completely disappear	somewhat stable	≤ 4 days	
COc1ccc(O)c(C(C)(C)C)c1 [Butylated hydroxyl anisole (BHA), Butylated hydroxyl anisole]						1.43 µg/mL (≈ 7.93 µM)
